The source made the active and inactive calls.
Key:
[1] = target: Cytochrome P450 2C9 (Homo sapiens, UniProt P11712)
[2] = Luminescence Cell-Based Dose Retest to Confirm Inhibitors of Cancer Stem Cells. [Related pubchem assays (depositor defined):AID2717, AID2721]; format: functional; conditions: Homo sapiens
[3] = target: T1, Short transient receptor potential channel 4 (Mus musculus, UniProt Q9QUQ5); assay: block of DAMGO-driven TRPC4 calcium entry – cell-based, HEK293 TRPC4/mu-opioid, Fluo-4 calcium, dose response (AID 434942); format: functional;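 note: potency of inhibitors blocking the TRPC4 calcium response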
T1 sequence (Q9QUQ5 whole entry): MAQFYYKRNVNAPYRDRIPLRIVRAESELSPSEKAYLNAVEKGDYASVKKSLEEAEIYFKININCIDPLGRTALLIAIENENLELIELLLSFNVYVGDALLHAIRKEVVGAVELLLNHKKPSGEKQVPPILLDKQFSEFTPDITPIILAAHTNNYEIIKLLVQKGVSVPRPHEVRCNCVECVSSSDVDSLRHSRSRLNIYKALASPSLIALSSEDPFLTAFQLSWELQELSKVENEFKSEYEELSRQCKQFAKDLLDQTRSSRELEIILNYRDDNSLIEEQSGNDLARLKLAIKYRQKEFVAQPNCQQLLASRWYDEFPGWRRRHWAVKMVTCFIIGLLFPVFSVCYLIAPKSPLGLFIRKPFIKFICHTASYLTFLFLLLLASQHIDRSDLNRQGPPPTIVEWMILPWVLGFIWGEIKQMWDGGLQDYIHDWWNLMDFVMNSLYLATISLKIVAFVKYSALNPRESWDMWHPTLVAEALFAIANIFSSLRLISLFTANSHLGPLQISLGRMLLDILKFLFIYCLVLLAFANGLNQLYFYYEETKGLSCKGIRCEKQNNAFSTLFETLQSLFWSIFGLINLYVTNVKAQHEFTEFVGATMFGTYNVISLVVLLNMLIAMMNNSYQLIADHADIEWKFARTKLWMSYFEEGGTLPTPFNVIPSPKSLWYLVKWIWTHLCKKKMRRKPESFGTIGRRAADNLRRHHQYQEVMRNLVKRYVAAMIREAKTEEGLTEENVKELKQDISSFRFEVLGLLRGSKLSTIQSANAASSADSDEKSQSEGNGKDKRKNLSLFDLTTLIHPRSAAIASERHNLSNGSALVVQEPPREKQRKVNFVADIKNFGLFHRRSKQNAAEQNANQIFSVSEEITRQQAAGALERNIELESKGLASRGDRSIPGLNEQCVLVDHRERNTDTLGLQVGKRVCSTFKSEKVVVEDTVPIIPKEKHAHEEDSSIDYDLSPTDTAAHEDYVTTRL

[4] = target: Cytochrome P450 2D6 (Homo sapiens, UniProt P10635);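 note: CYP2D6 member of a cytochrome P450 panel assay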
[5] = alpha-synuclein stem-loop luciferase translation blockers – H4 neuroglioma cells, luminescence, confirmation (AID 1988); format: functional, cell-based
[6] = luciferase reporter signal suppression in cells – H4 neuroglioma cells, luminescence, dose response (AID 1990); format: functional, cell-based
[7] = Luminescence Cell-Based Dose Response HTS to Identify Inhibitors of 5'UTR Stem-Loop Driven Prion Protein mRNA Translation in H4 Neuroglioblastoma Cells. [Related pubchem assays: 1827 (Project Summary), 1813 (Primary HTS)]; format: functional
[8] = system: HEK293; assay: EBV LMP1 TES2 canonical NF-kB signalling blockers – cell-based, HEK293, luciferase, cherry-pick, dose response (AID 588343); format: functional; conditions: Homo sapiens
[9] = target: T2, Corticotropin-releasing factor receptor 2/Corticotropin-releasing factor-binding protein (Homo sapiens, UniProt P24387+Q13324); assay: Dose Response confirmation of uHTS hits for small molecule antagonists of the CRF-binding protein and CRF-R2 receptor complex.; format: functional; conditions: read-out: IC50_Mean
T2 sequence (Q13324 whole entry): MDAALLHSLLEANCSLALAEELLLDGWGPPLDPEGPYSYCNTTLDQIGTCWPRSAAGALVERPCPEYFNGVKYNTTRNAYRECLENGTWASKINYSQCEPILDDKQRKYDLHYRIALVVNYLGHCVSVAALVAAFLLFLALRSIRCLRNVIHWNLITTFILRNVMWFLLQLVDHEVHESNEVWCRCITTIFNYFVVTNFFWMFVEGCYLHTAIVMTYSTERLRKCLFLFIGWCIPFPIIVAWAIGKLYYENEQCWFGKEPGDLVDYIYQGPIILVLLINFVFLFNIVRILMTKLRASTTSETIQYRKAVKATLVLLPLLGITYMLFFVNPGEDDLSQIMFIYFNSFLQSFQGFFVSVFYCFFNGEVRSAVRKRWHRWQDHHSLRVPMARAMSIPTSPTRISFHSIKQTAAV
T2 sequence (P24387 whole entry): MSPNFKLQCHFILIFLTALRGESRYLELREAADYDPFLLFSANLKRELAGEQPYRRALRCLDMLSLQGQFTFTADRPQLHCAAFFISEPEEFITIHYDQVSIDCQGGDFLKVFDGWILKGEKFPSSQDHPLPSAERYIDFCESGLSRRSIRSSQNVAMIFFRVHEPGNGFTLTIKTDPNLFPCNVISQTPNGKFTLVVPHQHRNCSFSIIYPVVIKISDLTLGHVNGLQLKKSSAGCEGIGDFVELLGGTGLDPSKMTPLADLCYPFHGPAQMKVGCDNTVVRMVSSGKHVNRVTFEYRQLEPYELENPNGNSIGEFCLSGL

[10] = target: T2, Corticotropin-releasing factor receptor 2/Corticotropin-releasing factor-binding protein; assay: activators of CRF receptor 2 with binding protein – uHTS hits, confirmation (AID 602473); format: functional; conditions: read-out: EC50_Mean
[11] = system: H9c2; assay: cells; format: functional, cell-based; conditions: Rattus norvegicus, H9c2, Myocardium;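 note: confirmatory concentration-response retest of ultra-high-throughput screening hits for modulation of myocardial damage; cell death induced by hydrogen peroxide oxidative stress; compound pretreatment for 60 min then peroxide exposure for 2 h; potency is for protecting the cells against peroxide damage rather than for killing them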
[12] = system: BJ; assay: BJ-TERT-LT-ST fibroblast viability loss – cell-based, RAS-independent, luminescence, dose response (AID 1935); format: functional; conditions: Homo sapiens;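 note: BJ fibroblasts immortalized with TERT plus LT and ST oncogenes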
[13] = system: BJ; assay: BJ-TERT fibroblast viability loss – cell-based, RAS-independent, luminescence, dose response (AID 1933); format: functional; conditions: Homo sapiens
[14] = system: BJ; assay: cells; format: functional, cell-based; conditions: Homo sapiens
[15] = DRD fibroblast viability loss – cell-based, non-viral oncogenic, luminescence, dose response (AID 1934); format: functional; conditions: Homo sapiens
[16] = system: HEK293; assay: cells; format: functional, cell-based; conditions: Homo sapiens
[17] = system: HEK293; assay: NOD2 signaling inhibitors in MDP-stimulated cells, cell-based, uHTS, luminescence (AID 2001); format: functional; conditions: Homo sapiens
[18] = system: HEK293; assay: cells; format: functional, cell-based; conditions: Homo sapiens; remark: listed apart in the source
[19] = system: HEK293; assay: inhibition of NOD1-driven NF-kB reporter – cell-based, luminescence, uHTS, primary screen (AID 1578); format: functional; conditions: Homo sapiens
[20] = target: T1, Short transient receptor potential channel 4; assay: calcium entry via TRPC4 opening agents – cell-based, HEK293 TRPC4/mu-opioid, Fluo-4 calcium, dose response (AID 434937); format: functional
[21] = target: T3, Heat shock factor protein 1 (Mus musculus, UniProt P38532); assay: enhancement of HSF1-driven luciferase signal – cell-based, NIH3T3, luminescence, dose retest, confirmation (AID 435004); format: functional;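 note: stress induced by proteasome inhibitor MG132 added 30 min after compound; luciferase reporter driven by HSF1 response element in NIH3T3 cells; actives raise luminescence as potentiators of the MG132 stress response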
T3 sequence (P38532 whole entry): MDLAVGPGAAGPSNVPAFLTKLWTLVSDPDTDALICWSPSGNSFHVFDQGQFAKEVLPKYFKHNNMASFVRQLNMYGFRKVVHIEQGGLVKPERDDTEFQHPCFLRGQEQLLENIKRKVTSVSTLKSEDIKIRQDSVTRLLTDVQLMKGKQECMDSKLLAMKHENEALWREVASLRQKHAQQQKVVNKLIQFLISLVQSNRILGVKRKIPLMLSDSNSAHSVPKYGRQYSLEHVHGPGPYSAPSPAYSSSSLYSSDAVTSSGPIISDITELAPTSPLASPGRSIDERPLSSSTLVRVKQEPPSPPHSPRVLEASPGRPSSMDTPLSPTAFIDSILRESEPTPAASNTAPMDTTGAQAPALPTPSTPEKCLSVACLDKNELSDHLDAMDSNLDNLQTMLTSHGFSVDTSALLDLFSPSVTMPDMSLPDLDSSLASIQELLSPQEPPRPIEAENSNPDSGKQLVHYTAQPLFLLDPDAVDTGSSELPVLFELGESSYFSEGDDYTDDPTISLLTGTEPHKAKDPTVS

[22] = target: Glyceraldehyde-3-phosphate dehydrogenase (Homo sapiens, UniProt P04406)
[23] = Luminescence Cell-Based Dose Confirmation HTS to Identify Inhibitors of Platelet Dense Granule Release. [Related pubchem assays: 1663 (Primary HTS), 1678 (Summary of Project)]; format: functional
[24] = target: Luciferin 4-monooxygenase (Photinus pyralis, UniProt P08659); assay: inhibition of purified Photinus pyralis luciferase – biochemical, luminescence, dose response (AID 1891)
Sequence of Luciferin 4-monooxygenase (P08659 whole entry): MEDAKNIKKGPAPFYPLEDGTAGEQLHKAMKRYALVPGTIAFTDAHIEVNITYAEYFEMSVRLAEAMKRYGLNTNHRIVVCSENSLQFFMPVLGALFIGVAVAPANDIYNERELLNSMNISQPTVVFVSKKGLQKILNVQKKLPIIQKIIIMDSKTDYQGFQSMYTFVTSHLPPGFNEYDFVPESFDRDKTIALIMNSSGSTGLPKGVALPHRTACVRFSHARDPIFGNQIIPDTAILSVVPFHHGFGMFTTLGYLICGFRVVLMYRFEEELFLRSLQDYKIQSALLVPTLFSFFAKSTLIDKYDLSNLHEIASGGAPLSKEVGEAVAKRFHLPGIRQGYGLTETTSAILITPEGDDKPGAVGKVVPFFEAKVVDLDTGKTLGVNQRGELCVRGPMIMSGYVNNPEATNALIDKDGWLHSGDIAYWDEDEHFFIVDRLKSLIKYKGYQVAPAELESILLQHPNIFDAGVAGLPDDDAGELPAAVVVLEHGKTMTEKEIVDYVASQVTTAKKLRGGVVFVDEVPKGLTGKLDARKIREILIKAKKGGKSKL

Sequence of Cytochrome P450 2C9 (P11712 whole entry): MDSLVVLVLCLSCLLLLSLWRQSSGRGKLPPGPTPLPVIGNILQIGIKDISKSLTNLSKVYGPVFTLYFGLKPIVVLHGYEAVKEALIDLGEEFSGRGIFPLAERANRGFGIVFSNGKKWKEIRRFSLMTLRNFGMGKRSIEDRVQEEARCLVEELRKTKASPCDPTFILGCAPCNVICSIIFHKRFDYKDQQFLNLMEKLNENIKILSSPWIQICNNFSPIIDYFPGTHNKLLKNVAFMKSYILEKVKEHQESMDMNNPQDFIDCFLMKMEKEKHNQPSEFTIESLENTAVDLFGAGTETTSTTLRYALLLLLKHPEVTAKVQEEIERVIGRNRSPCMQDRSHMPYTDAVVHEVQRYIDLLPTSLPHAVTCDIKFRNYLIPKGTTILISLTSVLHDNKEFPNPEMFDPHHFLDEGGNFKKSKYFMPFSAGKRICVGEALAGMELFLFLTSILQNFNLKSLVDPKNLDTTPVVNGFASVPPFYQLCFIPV
Sequence of Glyceraldehyde-3-phosphate dehydrogenase (P04406 whole entry): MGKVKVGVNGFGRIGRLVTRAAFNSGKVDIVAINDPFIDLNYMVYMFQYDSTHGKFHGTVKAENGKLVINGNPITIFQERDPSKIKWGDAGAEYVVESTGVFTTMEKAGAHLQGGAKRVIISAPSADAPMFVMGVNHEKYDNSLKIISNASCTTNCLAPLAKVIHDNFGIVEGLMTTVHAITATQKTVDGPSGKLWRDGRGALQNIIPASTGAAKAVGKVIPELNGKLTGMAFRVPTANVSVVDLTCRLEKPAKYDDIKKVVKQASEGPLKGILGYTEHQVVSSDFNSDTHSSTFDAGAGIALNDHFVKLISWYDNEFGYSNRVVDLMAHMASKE
Sequence of Cytochrome P450 2D6 (P10635 whole entry): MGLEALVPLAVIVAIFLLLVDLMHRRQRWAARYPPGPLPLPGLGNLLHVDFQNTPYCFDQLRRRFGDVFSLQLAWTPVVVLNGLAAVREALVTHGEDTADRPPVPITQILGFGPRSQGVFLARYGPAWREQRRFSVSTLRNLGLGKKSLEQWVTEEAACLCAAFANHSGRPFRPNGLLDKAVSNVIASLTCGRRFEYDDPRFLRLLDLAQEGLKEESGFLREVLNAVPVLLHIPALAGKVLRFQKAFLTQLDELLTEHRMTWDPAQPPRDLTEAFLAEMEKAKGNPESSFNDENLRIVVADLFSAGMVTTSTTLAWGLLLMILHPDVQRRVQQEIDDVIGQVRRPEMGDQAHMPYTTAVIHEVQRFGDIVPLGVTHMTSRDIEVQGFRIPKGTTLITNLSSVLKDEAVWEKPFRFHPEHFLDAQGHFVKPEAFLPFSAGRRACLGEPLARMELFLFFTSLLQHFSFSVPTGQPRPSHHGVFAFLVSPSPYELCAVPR

Question: Which AC50 [1] does the source give for `CNCC[C@H](Oc1ccc(C(F)(F)F)cc1)c1ccccc1` here?
Answer: The AC50 was “inactive”.

Question: Which results are given for `O=C(CN1CCCC1)Nc1ccc(Cl)cc1C(=O)c1ccccc1`?
Answer: AC50 [2]: 16.1 µM (active); EC50 [3]: 1.5 µM (active)

Question: Which results are given for `COc1ccc(C(C(=O)NC2CCCCC2)N2CCC3(CC2)OCCO3)cc1` (stereo unspecified)?
Answer: AC50 [1]: inconclusive; AC50 [4]: 0.316 µM (inconclusive)

Question: For `Cc1cc(C(=O)COc2cccnc2[N+](=O)[O-])c(C)n1-c1ccccc1F`, which EC50 [5] is on record?
Answer: The EC50 was 0.791 µM (active).

Question: And the EC50 [6]?
Answer: The EC50 was 6.07 µM (active).

Question: What about the EC50 [7] of the same compound?
Answer: Its EC50 is 16.8 µM (active).

Question: What about the AC50 [8] of the same compound?
Answer: The AC50 was 2.61 µM (active).

Question: With `COCCN1CC(=O)N(c2cccc(C)c2C)C(c2ccc(Cl)cc2)C1=O` (stereo unspecified) as the compound, how does the IC50 [9] read?
Answer: The IC50 was > 47.1 µM (inactive).

Question: What about the EC50 [10] of the same compound?
Answer: Its EC50 is > 53 µM (inactive).

Question: For `CCC(C)NC(=O)Cn1cnc2sc(C)c(S(=O)(=O)N3CCCCC3)c2c1=O` (stereo unspecified), which IC50 [9] is on record?
Answer: Its IC50 is > 47.1 µM (inactive).

Question: What about the EC50 [10] of the same compound?
Answer: Its EC50 is > 53 µM (inactive).

Question: For `COc1ccc(-c2csc(NC(=O)CCn3cnc4ccccc4c3=O)n2)cc1OC`, which IC50 [11] is on record?
Answer: The IC50 was 27.9 µM (active).

Question: For `N#CC1=C2SCC(O)(c3ccccc3)N2C(=O)CC1c1ccccc1` (stereo unspecified), which EC50 [12] is on record?
Answer: The EC50 was 3.28 µM (active).

Question: What about the EC50 [13] of the same compound?
Answer: The EC50 was 4.26 µM (active).

Question: And the EC50 [14]?
Answer: The EC50 was 51.4 µM (active).

Question: And the EC50 [15]?
Answer: The EC50 was 3.01 µM (active).

Question: With `Cc1nc2cc(NC(=O)c3ccc([N+](=O)[O-])s3)ccc2s1` as the compound, how does the EC50 [5] read?
Answer: The EC50 was 0.95 µM (active).

Question: What about the IC50 [16] of the same compound?
Answer: Its IC50 is > 20 µM (inactive).

Question: What about the EC50 [6] of the same compound?
Answer: Its EC50 is < 0.1 µM (active).

Question: And the IC50 [17]?
Answer: The IC50 was > 20 µM (inactive).

Question: What about the IC50 [18] of the same compound?
Answer: Its IC50 is > 20 µM (inactive).

Question: What about the EC50 [7] of the same compound?
Answer: The EC50 was 4.17 µM (active).

Question: And the EC50 [19]?
Answer: Its EC50 is 3.16 µM (active).

Question: For `CN(C)C1(CNC(=O)CC(NC(=O)c2ccccc2Cl)c2ccccc2)CCCCC1` (stereo unspecified), which EC50 [20] is on record?
Answer: Its EC50 is 0.668 µM (active).

Question: What about the EC50 [3] of the same compound?
Answer: The EC50 was 0.299 µM (active).

Question: With `O=C(CCc1nc(O)c2ccccc2n1)N1CCN(S(=O)(=O)c2ccccc2Br)CC1` as the compound, how does the IC50 [11] read?
Answer: Its IC50 is > 79 µM (inactive).

Question: For `COc1ccc(N2CCN(S(=O)(=O)c3ccc4c(c3)CCCC4)CC2)c([N+](=O)[O-])c1`, which AC50 [1] is on record?
Answer: Its AC50 is “inconclusive”.

Question: With `Cc1ccsc1C(=O)C1CCCN(Cc2ccccc2O)C1` (stereo unspecified) as the compound, how does the EC50 [3] read?
Answer: The EC50 was 4.22 µM (active).

Question: And the EC50 [21]?
Answer: Its EC50 is > 260 µM (inactive).

Question: For `O=C1C(Cl)=C(N2CCN(c3ccccc3)CC2)C(=O)N1c1ccnc(Cl)c1`, which IC50 [22] is on record?
Answer: Its IC50 is > 50 µM (inconclusive).

Question: Which results are given for `COc1ccc(-c2cn3ccc(C)cc3n2)cc1`?
Answer: EC50 [23]: 9.75 µM (active); EC50 [24]: 1.13 µM (active); AC50 [8]: 2.62 µM (active)

Question: With `O=C(CCCN1C(=O)c2cccc3cccc(c23)C1=O)N1CCN(c2ccccc2O)CC1` as the compound, how does the IC50 [11] read?
Answer: The IC50 was 9.95 µM (active).

— ChEMBL document CHEMBL1201862, “PubChem BioAssay data set” (2004)
